{"source": "patent US12529700B2", "about": "“Methods for identifying cancer” (NDSU Research Foundation, priority 2021, dated 2026)", "system": "MIA PaCa-2 cells", "experiment": "Gemcitabine treatment, cell viability by CCK-8 assay", "assay_type": "cell-based, human", "conditions": "method says 20 μM for 48 hr", "description": "Gemcitabine Treatment Cells were seeded in 96-well plates at a density of 10^4 cells/well. […] Cell viability was accessed by CCK-8 assay following the manufacturer's instructions. Briefly, a mixture of 10 μL of CCK-8 and 190 μL media was added into each well, and the cells were incubated for another 1 hr. The absorbance of each well was measured at 450 nm using a microplate reader. Each experiment was performed in 6 repeats.", "data": [{"molecule": "Nc1ccn([C@@H]2O[C@H](CO)[C@@H](O)C2(F)F)c(=O)n1", "note": "[gemcitabine]", "values": [{"measurement": "viability of malignant MIA PaCa-2 cells with vs without gemcitabine treatment", "value": "dramatic decrease in viability"}]}]}
